Source: ChEMBL document CHEMBL1156829 (Proc Natl Acad Sci U S A, 2008)

How the values were obtained:
Plasmodium falciparum [1] = assay: NOVARTIS: Inhibition of Plasmodium falciparum W2 (drug-resistant) proliferation in erythrocyte-based infection assay; format: functional, organism-based; conditions: Plasmodium falciparum, W2; read-out: EC50
[2] = NOVARTIS: Cytotoxicity against human hepatocellular carcinoma cell line (Huh7); format: toxicity, cell-based, Huh-7; conditions: Huh7 cells (hepatocellular carcinoma cell line)
Plasmodium falciparum [3] = assay: NOVARTIS: Inhibition of Plasmodium falciparum 3D7 (drug-susceptible) proliferation in erythrocyte-based infection assay; format: functional, organism-based; conditions: Plasmodium falciparum, 3D7

SMILES | EC50 (Plasmodium falciparum [1]) | CC50 [2] | EC50 (Plasmodium falciparum [3])
Cc1ccnc(NC(c2cccc(Cl)c2Cl)c2ccc3cccnc3c2O)c1 (configuration not stated) | 144 nM | > 49000 nM | 152 nM
CN(C)Cc1c(O)ccc2oc(Cc3ccccc3)cc12 | 59 nM | 20100 nM | 219 nM
CCN1CCN(Cc2c(O)ccc3c(=O)c(Oc4cc(C)cc(C)c4)c(C(F)(F)F)oc23)CC1 | 296 nM | > 100000 nM | 3630 nM
Nc1c(Cl)c(Cl)nc(C(Cl)(Cl)Cl)c1Cl | 286 nM | > 100000 nM | 448 nM
CC(=O)Nc1nc(C)c(-c2csc(Nc3ccc(Cl)cc3)n2)s1 | 97.8 nM | 34400 nM | 140 nM
COC(=O)c1ccc(C2C3=C(O)CC(c4ccc(F)cc4)CC3=Nc3ccccc3N2C(=O)c2ccccc2)cc1 (configuration not stated) | 290 nM | > 100000 nM | 332 nM
CC(Cl)=CCc1c(C)nc2c(ccc3ccccc32)c1O | 299 nM | > 100000 nM | 230 nM
COc1cc(C(=O)N2N=C(c3c(-c4ccccc4)c4cc(Br)ccc4[nH]c3=O)CC2c2cccc([N+](=O)[O-])c2)cc(OC)c1OC (configuration not stated) | 288 nM | > 100000 nM | 362 nM
C(=NNc1nc2ccccc2[nH]1)c1ccc2c(c1)OCO2 | 289 nM | > 100000 nM | 184 nM
CCOC(=O)C1=C(C)NC2=C(C(=O)CC(C)(C)C2)C1c1cc(I)sc1SC (configuration not stated) | 287 nM | > 100000 nM | 798 nM
O=C(/C=C/c1c[nH]cn1)N1CCC(n2c(CC3CCCC3)nc3cccnc32)CC1 | 28.7 nM | > 10000 nM | > 1670 nM
Cc1ccn2c(NC(C)(C)CC(C)(C)C)c(-c3ccccc3OC(=O)N(C)C)nc2c1 | 28.5 nM | > 10000 nM | 576 nM
O=C(Nc1ccccc1Cl)c1cc2ccccc2cc1O | 298 nM | > 100000 nM | 327 nM
O=S(=O)(NCCNc1ncnc2scc(-c3ccccc3)c12)c1ccc(Cl)c(Cl)c1 | 307 nM | > 100000 nM | 290 nM
CC1=C(C(=O)OC(C)C)C(c2ccc(F)cc2)C2=C(CC(c3ccc(Cl)cc3)CC2=O)N1 (configuration not stated) | 91.3 nM | 29700 nM | 358 nM
COc1cc(NC(C)CCCN(Cc2ccc(Cl)cc2)C(=O)Nc2ccc(Cl)cc2Cl)c2ncccc2c1 (configuration not stated) | < 17.1 nM | 5600 nM | 416 nM
COc1ccc(/C=C/c2ccc3ccccc3[n+]2C)cc1 | 30.4 nM | > 10000 nM | 133 nM
CCCNC1=C(N(C(C)=O)c2ccc(C)cc2)C(=O)c2ccccc2C1=O | 13.1 nM | 4330 nM | 13 nM
Brc1ccc(-c2cn3c([n+]2-c2ccccc2)SCC3)cc1 | 303 nM | > 100000 nM | 335 nM
CC1CN(C(=O)C(Cl)(Cl)Cl)C(C)CN1C(=O)C(Cl)(Cl)Cl (configuration not stated) | 302 nM | > 100000 nM | 2050 nM
CC1=CC(=Cc2sc3ccccc3[n+]2C)C=C(C)O1 | 23.7 nM | 8350 nM | 31.3 nM
O=C(NCc1n[nH]c(=S)n1-c1ccc(Br)cc1)c1cccc2ccccc12 | 301 nM | > 100000 nM | 293 nM
Cc1cc(C)c2c(c1)OCN(Cc1ccccc1Cl)C2 | 300 nM | > 100000 nM | 192 nM
COc1ccc(-c2nc(CN3CCCCC3)ccc2O)cc1 | 30 nM | > 10000 nM | 131 nM
CC(C)(C)NCC(O)Cn1c2ccc(Cl)cc2c2cc(Cl)ccc21 (configuration not stated) | 56.3 nM | 18800 nM | 258 nM
CCC(C(=O)NCc1ccc(OC)c(OC)c1)n1nc(C)c2c(C)n(-c3ccc(C)cc3)nc2c1=O (configuration not stated) | 299 nM | > 100000 nM | 273 nM
CC(C)(C)CC(C)(C)Nc1c(-c2ccccc2OC(=O)C2CCCC2)nc2ccccn12 | 29.9 nM | > 10000 nM | 2100 nM

SMILES | EC50 (Plasmodium falciparum [1]) | CC50 [2] | EC50 (Plasmodium falciparum [3])
O=C(c1ccc2nc(N3CCCCC3)sc2c1)N1CCN(Cc2ccc3c(c2)OCO3)CC1 | 298 nM | > 100000 nM | 407 nM
COc1ccc(-n2nc3c(c2NC(=O)C=Cc2cc(OC)c(OC)c(OC)c2)CSC3)cc1 | 294 nM | > 100000 nM | 392 nM
CCCCC(CC)C(=O)N1CCN(C(CC)c2nc3ccccc3c(=O)n2C)CC1 (configuration not stated) | 294 nM | > 100000 nM | 374 nM
CN(C)CCN1CCN(c2cccc(-c3cccc4cccnc34)n2)CC1 | 55.2 nM | 18800 nM | 18 nM
CCOC(=O)c1ccc(OCC2c3cc(OC)c(OC)cc3CCN2C(=O)Nc2ccc(Cl)cc2)cc1 (configuration not stated) | 292 nM | > 100000 nM | 1970 nM
Oc1ccc(C2Nc3ccc4ccccc4c3C3C=CCC32)cc1 (configuration not stated) | 292 nM | > 100000 nM | 812 nM
Clc1ccc(C[n+]2cc(-c3ccccc3)n3c2CCC3)cc1Cl | 158 nM | > 55700 nM | 499 nM
Oc1ccc(-c2ccccc2)cc1CNCCCN1CCOCC1 | 28.4 nM | > 10000 nM | 706 nM
Cc1cc(C)n(CC(O)Cn2c3ccc(I)cc3c3cc(I)ccc32)n1 (configuration not stated) | 296 nM | > 100000 nM | 1190 nM
OC(CN1CCN(c2ccnc3cc(Cl)ccc23)CC1)CN1CCN(c2ccnc3cc(Cl)ccc23)CC1 | 29.6 nM | > 10000 nM | 85.6 nM
CCOC(=O)c1ccc(N(C(=O)Cc2c[nH]c3ccccc23)C(C(=O)NC2CCCCC2)c2cccnc2)cc1 (configuration not stated) | 295 nM | > 100000 nM | 280 nM
CCOc1cc(-c2nc3c(=O)n(C)c(=O)nc-3n(C)n2)ccc1OC(C)C | 29.3 nM | > 10000 nM | 333 nM
Cc1ccc(C2CC(C(F)(F)F)n3ncc(C(=O)Nc4ccc(OC(F)(F)F)cc4)c3N2)cc1 (configuration not stated) | 293 nM | > 100000 nM | 282 nM
Oc1c(C(Nc2ccccn2)c2ccc(Br)cc2)ccc2cccnc12 (configuration not stated) | 284 nM | > 100000 nM | 358 nM
CC(=O)N(C1=C(N2CCCC2)C(=O)c2ccccc2C1=O)c1ccc(F)cc1 | 75.9 nM | 25800 nM | 646 nM
C[n+]1ccn(-c2ccc(C(=O)c3ccc(-n4cc[n+](C)c4)cc3)cc2)c1 | 29.4 nM | > 10000 nM | 33.5 nM
CCCc1cc(O)c2c3c(c(=O)oc2c1)CN(C)CC3 | 294 nM | > 100000 nM | 554 nM
COC(=O)C1=C(C)N/C(=C\c2cc(C)n(-c3ccccc3C(F)(F)F)c2C)C1=O | 29.9 nM | > 10000 nM | 22.4 nM
CCCCCCc1cc(O)c2c3c(c(=O)oc2c1)CCC(C)C3 (configuration not stated) | 297 nM | > 100000 nM | 364 nM
CCN(CC)c1nc(NN=Cc2cccc([N+](=O)[O-])c2OC)nc(Nc2ccccc2)n1 | 294 nM | > 100000 nM | 244 nM
COc1ccc2c(c1)C=C([C@@H]1C[C@H]3CN(c4ccccc4)C(=O)[C@]34CCCN14)CO2 | 289 nM | > 100000 nM | 588 nM
CCOc1cc(C2CC(=O)NC3=C2C(=O)CC(c2ccc(OC)cc2)C3)cc(Cl)c1O (configuration not stated) | 285 nM | > 100000 nM | 612 nM
Clc1ccc(-c2c[n+](CCc3ccccc3)c3n2CCC3)cc1 | 299 nM | > 100000 nM | 380 nM
Cc1ccccc1Cn1c(=N)n(CC(O)c2ccc(Cl)c(Cl)c2)c2ccccc21 (configuration not stated) | 38.4 nM | 13300 nM | 135 nM
O=C1[C@@H]2CCCN2C(=O)C(c2ccc(Oc3ccccc3)cc2)N1CCc1ccccn1 (some centres not stated) | < 30.4 nM | > 10000 nM | > 1250 nM
CCCCCC1CCCc2c1[nH]c1cc(Cl)ccc1c2=O (configuration not stated) | 302 nM | > 100000 nM | 475 nM
CC[n+]1c(C=C2C=C(C)CC(C)C2)sc2ccccc21 (configuration not stated) | 300 nM | > 100000 nM | 326 nM
